Data on one molecule can be found in patent US6448246B1 (dated 2002).

Molecules are shown by their SMILES.

In general, melting point refers to the temperature, or range, at which the solid turns liquid. Turning to `O=C(NCc1ccccc1)C1C=Nc2ccccc2S1` (stereo not shown), the melting point was in the range of 160 to 162 °C.
